The results in this text go back to patent US12421229B2, “Hydropyrido[1,2-α]pyrazine compounds for the treatment of autoimmune disease” (Hoffmann-La Roche Inc., priority 2019, dated 2025).

This assay has as its target T1, human TLR7 (Homo sapiens, UniProt Q9NYK1).
T1 construct: host or cells: HEK293 (HEK-Blue hTLR7)
T1 sequence (Q9NYK1 27-1049): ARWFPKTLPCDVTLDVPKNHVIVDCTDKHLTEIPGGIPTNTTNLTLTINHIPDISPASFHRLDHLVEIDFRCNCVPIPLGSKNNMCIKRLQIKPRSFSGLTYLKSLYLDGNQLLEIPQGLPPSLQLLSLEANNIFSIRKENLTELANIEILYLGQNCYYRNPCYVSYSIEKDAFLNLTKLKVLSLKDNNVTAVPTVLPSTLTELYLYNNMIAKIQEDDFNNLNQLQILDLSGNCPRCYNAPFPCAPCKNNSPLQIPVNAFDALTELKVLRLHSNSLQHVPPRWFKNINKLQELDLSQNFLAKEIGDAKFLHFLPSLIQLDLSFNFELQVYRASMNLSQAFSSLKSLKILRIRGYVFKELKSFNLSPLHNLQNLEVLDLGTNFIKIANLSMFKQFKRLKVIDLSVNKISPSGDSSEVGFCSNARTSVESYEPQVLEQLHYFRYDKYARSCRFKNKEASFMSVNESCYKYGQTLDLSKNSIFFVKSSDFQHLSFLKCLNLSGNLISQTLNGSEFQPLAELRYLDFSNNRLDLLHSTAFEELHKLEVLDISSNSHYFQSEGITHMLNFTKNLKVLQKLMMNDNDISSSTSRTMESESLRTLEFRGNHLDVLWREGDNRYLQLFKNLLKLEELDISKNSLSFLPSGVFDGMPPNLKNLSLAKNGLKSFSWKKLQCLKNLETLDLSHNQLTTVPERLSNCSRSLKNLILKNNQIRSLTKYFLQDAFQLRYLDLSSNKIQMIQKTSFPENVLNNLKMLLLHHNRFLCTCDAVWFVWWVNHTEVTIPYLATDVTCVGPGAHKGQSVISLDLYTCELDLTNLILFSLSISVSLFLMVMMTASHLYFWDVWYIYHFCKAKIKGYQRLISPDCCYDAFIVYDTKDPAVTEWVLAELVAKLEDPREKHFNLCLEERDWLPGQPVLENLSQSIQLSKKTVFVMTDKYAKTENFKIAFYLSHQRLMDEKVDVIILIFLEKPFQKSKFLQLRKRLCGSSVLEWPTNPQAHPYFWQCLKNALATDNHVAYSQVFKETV
As to the kind of experiment: HEK293-Blue-hTLR-7 cells assay. The class given is cell-based. To be noted: HEK293-Blue-hTLR7 cells, R848 stimulation, 20 hrs, SEAP reporter; read-out: HEK/hTLR7 IC50. An excerpt: A stable HEK293-Blue-hTLR-7 cell line was purchased from InvivoGen (Cat. #: hkb-htlr7, San Diego, California, USA). These cells were originally designed for studying the stimulation of human TLR7 by monitoring the activation of NF-κB. A SEAP (secreted embryonic alkaline phosphatase) reporter gene was placed under the control of the IFN-β minimal promoter fused to five NF-κB and AP-1-binding sites. The SEAP was induced by activating NF-κB and AP-1 via stimulating HEK-Blue hTLR7 cells with TLR7 ligands. Therefore the reporter expression was declined by TLR7 antagonist under the stimulation of a ligand, such as R848 (Resiquimod), for incubation of 20 hrs. The cell culture supernatant SEAP reporter activity was determined using QUANTI-Blue™ kit (Cat. #: rep-qb1, Invivogen, San Diego, Ca, USA) at a wavelength of 640 nm, a detection medium that turns purple or blue in the presence of alkaline phosphatase.
HEK293-Blue-hTLR7 cells were incubated at a density of 250,000˜450,000 cells/mL in a volume of 170 μL in a 96-well plate in Dulbecco's Modified Eagle's medium (DMEM) containing 4.5 g/L glucose, 50 U/mL penicillin, […], […], 2 mM L-glutamine, 10% (v/v) heat-inactivated fetal bovine serum with addition of 20 μL test compound in a serial dilution in the presence of final DMSO at 1% and 10 μL of 20 uM R848 in above DMEM, perform incubation under 37° C. in a CO2 incubator for 20 hrs. Then 20 μL of the supernatant from each well was incubated with 180 μL Quanti-blue substrate solution at 37° C. for 2 hrs and the absorbance was read at 620˜655 nm using a spectrophotometer. The signaling pathway that TLR7 activation leads to downstream NF-κB activation has been widely accepted, and therefore similar reporter assay was modified for evaluating TLR7 antagonist.

For the molecule `C[C@@H]1CN(c2ccc(C#N)c3ncccc23)C[C@@H]2C[C@@H](Oc3cnc(N4CCNCC4)nc3)CCN21` [Example 18, 5-[(4R,8S,9aS)-4-methyl-8-(2-piperazin-1-ylpyrimidin-5-yl)oxy-1,3,4,6,7,8,9,9a-octahydropyrido[1,2-a]pyrazin-2-yl]quinoline-8-carbonitrile], the IC50 was found to be 0.021 µM.
Then `CO[C@@H]1CN(c2ccc([C@@H]3CCN4[C@@H](C3)CN(c3ccc(C#N)c5ncccc35)C[C@H]4C)cn2)C[C@@H]1N` [Example 13, 5-[(4R,8R,9aS)-8-[6-[(3S,4R)-3-amino-4-methoxy-pyrrolidin-1-yl]-3-pyridyl]-4-methyl-1,3,4,6,7,8,9,9a-octahydropyrido[1,2-a]pyrazin-2-yl]quinoline-8-carbonitrile], with 0.021 µM.
As to `C[C@@H]1CN(c2ccc(C#N)c3ncccc23)C[C@@H]2C[C@H](c3ccc(N4CCOC[C@@H](N)C4)nc3)CCN21` [Example 23, 5-[(4R,8R,9aS)-8[6-[(6S)-6-amino-1,4-oxazepan-4-yl]-3-pyridyl]-4-methyl-1,3,4,6,7,8,9,9a-octahydropyrido[1,2-a]pyrazin-2-yl]quinoline-8-carbonitrile], the IC50 came to 0.021 µM.
Then `[2H]c1ccc2c(N3C[C@@H]4C[C@H](Nc5ccc(C[C@@H]6CNCCO6)cc5)CCN4[C@H](C)C3)ccc(C#N)c2n1` [Example 22, 5-[(4R,8R,9aS)-4-methyl-8-[4-[[(2R)-morpholin-2-yl]methyl]anilino]-1,3,4,6,7,8,9,9a-octahydropyrido[1,2-a]pyrazin-2-yl]-2-deuterio-quinoline-8-carbonitrile], with 0.044 µM; and `C[C@@H]1CN(c2ccc(C#N)c3ncccc23)C[C@@H]2C[C@@H](c3ccc(CC4CNCCO4)cc3)CCN21` (stereo partly drawn) [Example 26, 5-[(4R,8S,9aS)-4-methyl-8-[4-(morpholin-2-ylmethyl)phenyl]-1,3,4,6,7,8,9,9a-octahydropyrido[1,2-a]pyrazin-2-yl]quinoline-8-carbonitrile], with 0.03 µM.
For the molecule `C[C@@H]1CN(c2ccc(C#N)c3ncccc23)C[C@@H]2CC(c3ccc(C[C@@H]4CNCCO4)cc3)CCN21` (stereo in doubt) [Example 25, 5-[(4R,8R,9aS)-4-methyl-8-[4-[[(2R)-morpholin-2-yl]methyl]phenyl]-1,3,4,6,7,8,9,9a-octahydropyrido[1,2-a]pyrazin-2-yl]quinoline-8-carbonitrile], the IC50 amounted to 0.008 µM.
Turning to `C[C@@H]1CN(c2ccc(C#N)c3ncccc23)C[C@@H]2C[C@H](Nc3ccc([C@H]4CNCCO4)cc3)CCN21` [Example 20, 5-[(4R,8R,9aS)-4-methyl-8-[4-[(2S)-morpholin-2-yl]anilino]-1,3,4,6,7,8,9,9a-octahydropyrido[1,2-a]pyrazin-2-yl]quinoline-8-carbonitrile], the IC50 came to 0.013 µM.
Consider `C[C@@H]1CN(c2ccc(C#N)c3ncccc23)C[C@@H]2C[C@@H](Oc3cncc(N4CCNCC4)c3)CCN21` [Example 29, 5-[(4R,8S,9aS)-4-methyl-8-[(5-piperazin-1-yl-3-pyridyl)oxy]-1,3,4,6,7,8,9,9a-octahydropyrido[1,2-a]pyrazin-2-yl]quinoline-8-carbonitrile], for which the IC50 came out at 0.049 µM.
For the molecule `C[C@@H]1CN(c2ccc(C#N)c3ncccc23)CC2C[C@H](c3ccc(N4CCNCC4)cc3)CCN21` (stereo partly drawn) [Example 3, 5-[(4R,8R)-4-methyl-8-(4-piperazin-1-ylphenyl)-1,3,4,6,7,8,9,9a-octahydropyrido[1,2-a]pyrazin-2-yl]quinoline-8-carbonitrile], the IC50 turned out to be 0.01 µM.
As for `CO[C@H]1CN(c2ccc(C3CN([C@@H]4CCN5[C@@H](C4)CN(c4ccc(C#N)c6ncccc46)C[C@H]5C)C3)cc2)C[C@H]1N` [Example 32, 5-[(4R,8R,9aS)-8-[3-[4-[(3R,4S)-3-amino-4-methoxy-pyrrolidin-1-yl]phenyl]azetidin-1-yl]-4-methyl-1,3,4,6,7,8,9,9a-octahydropyrido[1,2-a]pyrazin-2-yl]quinoline-8-carbonitrile], the IC50 turned out to be 0.048 µM.
For the molecule `C[C@@H]1CN(c2ccc(C#N)c3ncccc23)C[C@@H]2C[C@@H](Oc3ccc(N4CCNCC4)nc3)CCN21` [Example 16, 5-[(4R,8S,9aS)-4-methyl-8-[(6-piperazin-1-yl-3-pyridyl)oxy]-1,3,4,6,7,8,9,9a-octahydropyrido[1,2-a]pyrazin-2-yl]quinoline-8-carbonitrile], the IC50 was determined as 0.035 µM.
`C[C@@H]1CN(c2ccc(C#N)c3ncccc23)C[C@H]2C[C@H](c3ccc(N4CCNCC4)nc3)CCN21` [Example 15, 5-[(4R,8R,9aR)-4-methyl-8-(6-piperazin-1-yl-3-pyridyl)-1,3,4,6,7,8,9,9a-octahydropyrido[1,2-a]pyrazin-2-yl]quinoline-8-carbonitrile]: the IC50 was 0.024 µM.
For the molecule `C[C@@H]1CN(c2ccc(C#N)c3ncccc23)C[C@@H]2C[C@@H](c3ccc(C4CNCCO4)cc3)CCN21` (stereo partly drawn) [Example 24, 5-[(4R,8S,9aS)-4-methyl-8-(4-morpholin-2-ylphenyl)-1,3,4,6,7,8,9,9a-octahydropyrido[1,2-a]pyrazin-2-yl]quinoline-8-carbonitrile], the IC50 amounted to 0.004 µM.
As for `C[C@@H]1CN(c2ccc(C#N)c3ncccc23)C[C@@H]2C[C@H](NCc3ccc(N4CCNCC4)cc3)CCN21` [Example 1, 5-[(4R,8R,9aS)-4-methyl-8-[(4-piperazin-1-ylphenyl)methylamino]-1,3,4,6,7,8,9,9a-octahydropyrido[1,2-a]pyrazin-2-yl]quinoline-8-carbonitrile], the figure is 0.033 µM; as for `C[C@@H]1CN(c2ccc(C#N)c3ncccc23)C[C@@H]2C[C@H](c3ccc(N4CCNCC4)nc3)CCN21` [Example 4, 5-[(4R,8R,9aS)-4-methyl-8-(6-piperazin-1-yl-3-pyridyl)-1,3,4,6,7,8,9,9a-octahydropyrido[1,2-a]pyrazin-2-yl]quinoline-8-carbonitrile], 0.006 µM.
With `C[C@@H]1CN(c2ccc(C#N)c3ncccc23)C[C@@H]2C[C@@H](NCc3ccc(N4CCNCC4)cc3)CCN21` [Example 17, 5-[(4R,8S,9aS)-4-methyl-8-[(4-piperazin-1-ylphenyl)methylamino]-1,3,4,6,7,8,9,9a-octahydropyrido[1,2-a]pyrazin-2-yl]quinoline-8-carbonitrile], the IC50 stood at 0.035 µM.
As to `[2H]c1ccc2c(N3C[C@@H]4C[C@@H](N5CC(c6ccc(N7C[C@@H](N)[C@H](OC)C7)cc6)C5)CCN4[C@H](C)C3)ccc(C#N)c2n1` [Example 36], the IC50 was determined as 0.03 µM.
Then `CO[C@@H]1CN(c2ccc(C3CN([C@@H]4CCN5[C@@H](C4)CN(c4ccc(C#N)c6ncccc46)C[C@H]5C)C3)cc2)C[C@H]1N` [Example 30, 5-[(4R,8R,9aS)-8-[3-[4-[(3R,4R)-3-amino-4-methoxy-pyrrolidin-1-yl]phenyl]azetidin-1-yl]-4-methyl-1,3,4,6,7,8,9,9a-octahydropyrido[1,2-a]pyrazin-2-yl]quinoline-8-carbonitrile], with 0.041 µM; and `CO[C@H]1CN(c2ccc(O[C@H]3CCN4[C@@H](C3)CN(c3ccc(C#N)c5ncccc35)C[C@H]4C)cn2)C[C@H]1N` [Example 28, 5-[(4R,8S,9aS)-8-[[6-[(3R,4S)-3-amino-4-methoxy-pyrrolidin-1-yl]-3-pyridyl]oxy]-4-methyl-1,3,4,6,7,8,9,9a-octahydropyrido[1,2-a]pyrazin-2-yl]quinoline-8-carbonitrile], with 0.047 µM.
